Measurements from US4954637A, “Certain maleimide-N-alkylenecarboxylate-ortho-nitrobenzenesulfonic acid esters and derivatives useful for coupling biological materials” (Cetus Corporation, priority 1987, dated 1990).
Like-named read-outs stand apart in the source and are kept apart here.

How the values were obtained:
polylysine = conditions: over a 5 minute period; pH 7.4, room temperature
Method: A total of 25 mg (0.34 μmoles) of polylysine obtained from Sigma Chemical Co. (Sigma) was succinylated to approximately 20 amines remaining unsuccinylated per polylysine molecule, and redissolved in 0.5 ml of 0.1M phosphate buffer at pH 7.4 to yield an amine concentration of 1.0×10^-2 M. Five mg (1.0×10^-5 moles) of the biotin HNSA ester was dissolved in 0.5 ml of the polylysine solution. The mixture was stirred at room temperature to initiate reaction. Ten μl aliquots were removed from the incubating solution at timed intervals and were each diluted into 1.0 ml of 0.01M phosphate buffer at pH 7.0. The spectrum of each diluted aliquot was measured and the absorbance at 406 nm recorded.

cells = conditions: vs biotin-p-nitrophenyl ester; fluoresceinated avidin; cited from earlier work
[1] = system: sheep red blood cells (SRBC); test: Labelling of sheep red blood cells, Coulter EPICS V Cytofluorometer; type: cell-based; conditions: excitation at 360 nm
Method: Dansyl-sac-HNSA ester was prepared as described in Example 1A using molar equivalents of HNSA, dicyclohexylcarbodiimide and dansyl-ε-aminocaproic acid (from Sigma Chemicals). For use in coupling to sheep red blood cells (SRBC) the dansyl-sac-HNSA ester (50 mg) was prepared in 7 ml of 0.28M cacodylate buffer, pH 6.9.
Sheep red blood cells were washed 4 times (400×g. 8 minutes) in G-PBS buffer (5% α-D-glucose w/v in PBSCa-Mg). To 1 ml of packed red blood cells was added the 7 ml of dansyl-sac-HNSA ester dropwise with gentle mixing for 10 minutes at room temperature. The reaction was done in foil-wrapped glassware to protect against photodecomposition. Following the reaction the cells were washed in cold G-PBS buffer containing 1% heat inactivated (56° C., 30 minutes) FCS (fetal calf serum) until the supernatants were colorless (a minimum of 4 washes).
The dansyl-sac-HNSA labelled SRBC were monitored using a Coulter EPICS V Cytofluorometer immediately after labeling and at 24 hours. […] This translates to an increase in intensity 720 times over unlabeled cells.

bovine serum albumin = conditions: pH 8.5; vs same ester of N-hydroxysuccinimide; cited from earlier work
[2] = system: bovine serum albumin (BSA); conditions: for Concentration of Ester: diluted aliquot
Method: A total of 22 mg ([…]) of BSA (of molecular weight 66,296) was dissolved in 2.0 ml of 0.01M phoshate buffer at pH 7.5 to yield a total amino concentration of 1.0×10^-2 moles per liter (assuming 59 lysines/BSA molecule). A calculated amount mg. […] The reaction was carried out at room temperature. […]
It was found at 15 minutes of reaction time that 2.6×10^-3 moles/1 of the ester had reacted and thus 25.9% of the 59 ε-amino groups of BSA were presumably substituted. Thus, the product contained 16 mal-sac groups per molecule.

streptavidin = system: streptavidin; parameters: species or system Streptomyces avidinii; conditions: over the period measured; pH 7.4, room temperature
Method: A total of 0.26 mg (4.3×10^-3 μmoles) of streptavidin purified from Streptomyces avidinii by the method of Hoffman et al., PNAS. 77, 4666-4668 (1980) was dissolved in 1.0 ml of phosphate buffered saline at pH 7.4 to yield a total amine concentration of 6.93×10^-5 M (16NH2 /streptavidin). […] Good separation was achieved between the protein and the excess HNSA and unreacted HNSA ester. […] In this case 79% of the amino groups on streptavidin (12.9 out of 16.0) reacted.

[3] = system: Horseradish peroxidase (HRP); conditions: over a 30 minute period; pH 7.0, room temperature
biotinylated polylysine = test: Coupling of mal-sac-HNSA to biotinylated polylysine, then to HRP-SH; conditions: over a 30 minute period; pH 7.4, room temperature
Method: Biotinylated Polylysine (0.6 ml; 73,000 D average mol. wt.) was adjusted to pH 7.4 with 0.015 ml of 2.5N NaOH. Approximately 5 mg of mal-sac-HNSA was added to the biotinylated polylysine and stirred at room temperature. Ten μl aliquots were removed from the mixture at timed intervals and diluted into 1.0 ml of 0.01M phosphate buffer at pH 7.0. The spectrum of each diluted aliquot was measured and the absorbance at 406 nm recorded. A total of 50 μl of 4.8N NaOH solution was then added to each aliquot, mixed, and the spectrum retaken.
After 30 minutes of incubation time, the reaction was stopped using a Sephadex G-25 column, and the high molecular weight (biotin)4-polylysine-(sac-mal)18 was well separated from excess HNSA and unreacted mal-sac-HNSA.

Solubility in water = type: physicochemical
[4] = Stability in water and on storage; type: physicochemical; conditions: no nucleophiles added
[5] = type: physicochemical; conditions: 50 μl of 4.8N NaOH added to aliquot in 1 ml pH 7.0 buffer
Method: About 0.5 mg of the purified mal-sac HNSA ester from Example IA was dissolved in 1 ml of distilled water.
The difference between the post-base and initial free HNSA concentration represents the concentration of ester. From the actual concentration of ester the amount of ester to be added to the protein solution to achieve the desired degree of substitution can be calculated.

For `O=C1N[C@H]2[C@H](CS[C@H]2CCCCC(=O)Oc2ccc(S(=O)(=O)O)cc2[N+](=O)[O-])N1` [Biotin-HNSA Ester], the reaction rate (polylysine) is given as “essentially linear” and the increase in fluorescence (cells) is given as “much larger increase in fluorescence”.

For `CN(C)c1cccc2c(S(=O)(=O)NCCCCCC(=O)Oc3ccc(S(=O)(=O)O)cc3[N+](=O)[O-])cccc12` [dansyl-sac-HNSA], the “increase in fluorescence intensity over unlabeled cells” value [1] was 720 times.

In the case of `O=C(CCCCCNc1ccc([N+](=O)[O-])cc1[N+](=O)[O-])Oc1ccc(S(=O)(=O)O)cc1[N+](=O)[O-]` [N-2,4-dinitrophenyl-6-aminocaproic acid ester of HNSA], the conjugation efficiency (bovine serum albumin) is given as “more efficient than the same ester of N-hydroxysuccinimide”.

In the case of `O=C(CCCCCN1C(=O)C=CC1=O)Oc1ccc(S(=O)(=O)O)cc1[N+](=O)[O-]` [mal-sac-HNSA, N-maleimido-6-aminocaproylHNSA], the “Concentration of Ester” value ([2]; 0 minutes) is reported as 1.56 × 10^-4 moles/1, the “Concentration of Ester” value ([2]; 5 minutes) is reported as 1.16 × 10^-4 moles/1 and the “Concentration of Ester” value ([2]; 9 minutes) is reported as 1.03 × 10^-4 moles/1. For the same compound, the “Concentration of Ester” value ([2]; 14 minutes) was 1.11 × 10^-4 moles/1, the ester reacted ([2]; 15 minutes of reaction time) was 2.6×10^-3 moles/1 and the reaction rate (streptavidin) was “essentially linear”. The reaction rate [3] was “essentially linear”, the reaction rate (biotinylated polylysine) was “essentially linear” and the solubility in water (Solubility in water) was “dissolve fully in water”. For the same compound, the stability in water [4] was “stable in water for several hours”, the hydrolysis by hydroxide [5] was “rapidly hydrolyzed” and the “Percent Ester Remaining” value (avidin; 10 minutes, room temperature) was 81%. For the same compound, the reaction rate (avidin; 30 minutes, FIG. 3) was “linear”.
